Test results from ChEMBL document CHEMBL5046264, “Cyclotides Chemosensitize Glioblastoma Cells to Temozolomide” (J Nat Prod, 2022).
≈ marks a conversion by molar mass, not a printed value. Calls of active or inactive are those of the source. The calls are words filed in the database; no cut-off is given here. Positions of bridges follow the written chain, without caps; N, C: chain ends. Residues, ends and D or L forms follow the SMILES beside them.

Legend:
U-87 MG [1] = experiment: Cytotoxicity against human U-87 MG cells using best fit nonlinear regression analysis; format: functional, cell-based, U-87MG ATCC
U-87 MG [2] = experiment: Cytotoxicity against human U-87 MG cells assessed as cell viability at 5 uM upto 72 hrs by MTT assay; format: functional, U-87MG ATCC; conditions: time hrs <=72, read-out: Activity
SH-SY5Y [3] = experiment: Cytotoxicity against human SH-SY5Y cells assessed as cell viability using raw interpretation method; format: functional, cell-based
SH-SY5Y [4] = experiment: Cytotoxicity against human SH-SY5Y cells using best fit nonlinear regression analysis; format: functional, cell-based
U-87 MG [5] = experiment: Cytotoxicity against human U-87 MG cells assessed as cell viability using raw interpretation method; format: functional, cell-based, U-87MG ATCC
SH-SY5Y [6] = experiment: Cytotoxicity against human SH-SY5Y cells assessed as cell viability at 5 uM upto 72 hrs by MTT assay; format: functional; conditions: time hrs <=72, read-out: Activity
U-87 MG [7] = experiment: Cytotoxicity against human U-87 MG cells assessed as TMZ-induced cell death at 0.35 to 2.8 uM cotreated with 176 to 704 uM of TMZ incubated upto 72 hrs by MTT assay; format: functional, cell-based; conditions: U-87MG ATCC, dose 0.35-2.8 µM, time hrs <=72
U-87 MG [8] = experiment: Effect on cell morphology in human U-87 MG cells at 4.2 uM cotreated with 1408 uM of TMZ measured after 72 hrs by phase contrast microscopy; format: functional, cell-based; conditions: U-87MG ATCC
U-87 MG [9] = experiment: Induction of morphological changes in human U-87 MG cells assessed as cell death at 4.2 uM cotreated with 1408 uM of TMZ measured after 72 hrs by phase contrast microscopy; format: functional, U-87MG ATCC
U-87 MG [10] = experiment: Cytotoxicity against human U-87 MG cells assessed as TMZ-induced cell death at 4.2 uM cotreated with 1408 uM of TMZ incubated upto 72 hrs by MTT assay; format: functional, cell-based; conditions: U-87MG ATCC, time hrs <=72
U-87 MG [11] = experiment: Induction of morphological changes in human U-87 MG cells assessed as appearance of shrunken cell bodies at 1408 uM measured after 72 hrs by phase contrast microscopy; format: functional, U-87MG ATCC
SH-SY5Y [12] = experiment: Cytotoxicity against human SH-SY5Y cells assessed as TMZ-induced cell death at 1.4 uM cotreated with 176 uM of TMZ incubated upto 72 hrs by MTT assay; format: functional, cell-based; conditions: time hrs <=72
U-87 MG [13] = experiment: Induction of morphological changes in human U-87 MG cells assessed as appearance of undergoing apoptosis at 1408 uM measured after 72 hrs by phase contrast microscopy; format: functional, U-87MG ATCC
U-251 = experiment: Cytotoxicity against human U-251 cells by sulforhodamine B assay; format: functional, cell-based
U-87 MG [14] = experiment: Induction of morphological changes in human U-87 MG cells assessed as membrane blebbing at 1408 uM measured after 72 hrs by phase contrast microscopy; format: functional, U-87MG ATCC

| Compound | IC50 (U-87 MG [1]) | viability at 5 µM (U-87 MG [2]) | IC50 (SH-SY5Y [3]) | IC50 (SH-SY5Y [4]) | IC50 (U-87 MG [5]) | viability at 5 µM (SH-SY5Y [6]) | Activity (U-87 MG [7]) | Activity (U-87 MG [8]) | Activity (U-87 MG [9]) | Activity (U-87 MG [10]) | Activity (U-87 MG [11]) | Activity (SH-SY5Y [12]) | Activity (U-87 MG [13]) | IC50 (U-251) | Activity (U-87 MG [14]) |
| --- | --- | --- | --- | --- | --- | --- | --- | --- | --- | --- | --- | --- | --- | --- | --- |
| CC[C@H](C)[C@@H]1NC(=O)[C@H](C)NC(=O)[C@H](C)NC(=O)[C@H](CO)NC(=O)[C@H]([C@@H](C)CC)NC(=O)[C@@H]2CSSC[C@@H]3NC(=O)[C@H](C(C)C)NC(=O)[C@H](CCCCN)NC(=O)[C@H](CO)NC(=O)[C@H](CCCCN)NC(=O)[C@@H]4CSSC[C@H](NC(=O)[C@H](CO)NC(=O)[C@H](CCC(=O)O)NC(=O)CNC(=O)[C@H](CSSC[C@H](NC(=O)CNC1=O)C(=O)N[C@@H](CO)C(=O)N4)NC(=O)[C@@H]1CCCN1C(=O)[C@H]([C@@H](C)CC)NC(=O)CNC(=O)[C@H](CC(N)=O)NC(=O)[C@H](CCCNC(=N)N)NC(=O)[C@H](Cc1ccc(O)cc1)NC3=O)C(=O)N[C@@H](C(C)C)C(=O)N[C@@H](Cc1c[nH]c3ccccc13)C(=O)N[C@@H]([C@@H](C)CC)C(=O)N1CCC[C@H]1C(=O)N2 [CYCLOVIOLACIN O13] (cyclo(AAIGCSCKSKVCYRNGIPCGESCVWIPCIS); disulfide 5-19, 7-23, 12-28) | 2.57 µM | 29.7% | 3.07 µM | 2.15 µM | 3.36 µM | 12.5% | – | – | – | – | – | – | – | – | – |
| CC(C)C[C@@H]1NC(=O)CNC(=O)[C@H](CC(N)=O)NC(=O)[C@H](CCCNC(=N)N)NC(=O)[C@H](CO)NC(=O)[C@@H]2CSSC[C@@H]3NC(=O)[C@H]([C@@H](C)O)NC(=O)CNC(=O)CNC(=O)[C@H](C(C)C)NC(=O)[C@@H]4CSSC[C@H](NC(=O)[C@H]([C@@H](C)O)NC(=O)[C@H](CSSC[C@H](NC(=O)[C@H](C(C)C)NC(=O)[C@@H]5CCCN5C1=O)C(=O)NCC(=O)N[C@@H](CCC(=O)O)C(=O)N[C@@H]([C@@H](C)O)C(=O)N4)NC(=O)CNC(=O)[C@@H]1CCCN1C(=O)[C@H]([C@@H](C)O)NC(=O)[C@H](CC(N)=O)NC3=O)C(=O)N[C@@H](CO)C(=O)N[C@@H](Cc1c[nH]c3ccccc13)C(=O)N1CCC[C@H]1C(=O)N[C@@H](C(C)C)C(=O)N2 | 2.91 µM | 29.6% | 3.53 µM | 2.88 µM | 3.76 µM | 13.2% | Active | Active | 50% | Active | 40% | Active | 40% | 37.2 µg/mL (≈ 12.9 µM) | 40% |
